The values that follow come from EP1379283B1, “IDENTIFICATION OF TARGET-SPECIFIC FOLDING SITES IN PEPTIDES AND PROTEINS” (Palatin Technologies, Inc., priority 2000, dated 2002).

Square brackets hold non-standard residues; d marks the D form. Ends that are not written are not given here. Nle = CCCC[C@H](N)C(=O)O; Sar = CNCC(=O)O

One experiment addresses T1, uPA receptor (Homo sapiens, UniProt Q03405).
T1 construct: endogenous in cells; host or cells: U937 cells
The experiment can be described thus: uPA receptor-binding assay using U937 cells and ATF as competitive ligand. Conditions: for % Inhibition at 1 µM: 1 µM metallopeptide, U937 cells, ATF as competitive receptor binding ligand.

The next experiment addresses T2, MC1-R (Mus musculus, UniProt Q01727).
T2 construct: B-16 mouse melanoma cells (containing MC1-R); endogenous in cells; host or cells: B-16 mouse melanoma cells (membranes)
The experiment can be described thus: competitive inhibition binding assay with 125I-NDP-alpha-MSH, B-16 mouse melanoma cell membranes. The note with it: for % Inhibition at 1 µM MC-1: 0.4 nM 125I-NDP-alpha-MSH, B-16 mouse melanoma cell membranes, mean of triplicate; for receptor specificity MCR-1 versus MCR-4: conclusion from Table 2. As for the experimental part: (§1) Ac-Nle-Ala-His-D-Phe-Arg-Trp-NH2 is a known receptor-binding sequence for melanotropin receptors. The K, values for binding to MCR-1 and -4 were measured to be 0.1 µM and 2 µM respectively. A series of metallopeptides based on this sequence were synthesized by inserting a Cys residue after the 2 position and through the n+1 position and complexing the resulting Cys-containing peptide with an Re-oxo metal ion core as described Example 1. The resulting metallopeptides were screened for inhibiting the binding of 125-I-NDP-alpha-MSH radioligand using B-16 mouse melanoma cells for MCR-1 and cloned human MCR-[…] and -4 receptor transfected 293 cells.
(§2) The competitive inhibition binding assay was conducted using membranes prepared from hMC3-R, hMC4-R, hMC5-R, and B-16 mouse melanoma cells (containing MC1-R) using 0.4 nM ^125I-NDP-alpha-MSH (New England Nuclear, Boston, MA, USA) in 50 mM HEPES buffer containing 1 mM MgCl2, 2 mM CaCl2, and 5 mM KCI, at pH 7.2. The assay tube also contained a chosen concentration of the test peptide of this invention, complexed to a rhenium metal ion as indicated, for determining its efficacy in inhibiting the binding of ^125I-NDP-alpha-MSH to its receptor. Non-specific binding was measured by complete inhibition of binding of ^125I-NDP-alpha-MSH in the assay with the presence of 1 µM alpha-MSH. Incubation was for 90 minutes at room temperature, after which the assay mixture was filtered and the membranes washed three times with ice cold buffer. The filter was dried and counted in a gamma counter for remaining radioactivity bound to the membranes. 100% specific binding was defined as the difference in radioactivity (cpm) bound to cell membranes in the absence and presence of 1 µM alpha-MSH. The cpm obtained in presence of test compounds were normalized with respect to 100% specific binding to determine the percent inhibition of ^125I-NDP-alpha MSH binding. Each assay was conducted in triplicate and the actual mean valves are described in Table 2.

The target in a further experiment is T3, hMC3-R (Homo sapiens, UniProt P41968).
T3 construct: expressed in transfected cells; host or cells: 293 cells
The experiment can be described thus: competitive inhibition binding assay with 125I-NDP-alpha-MSH, hMC3-R membranes. Conditions: 0.4 nM 125I-NDP-alpha-MSH, mean of triplicate. As for the experimental part: as §1, §2

The target of a further experiment is T4, hMC4-R (Homo sapiens, UniProt P32245).
T4 construct: expressed in transfected cells; host or cells: 293 cells
The experiment can be described thus: competitive inhibition binding assay with 125I-NDP-alpha-MSH, hMC4-R membranes. The note with it: 0.4 nM 125I-NDP-alpha-MSH, mean of triplicate. As for the experimental part:
as §1, §2

A further experiment deals with T5, hMC5-R (Homo sapiens, UniProt P33032).
T5 construct: expressed in transfected cells; host or cells: 293 cells are named only for 'MCR-2, -3 and -4'; for MC5-R the host is inferred
The experiment can be described thus: competitive inhibition binding assay with 125I-NDP-alpha-MSH, hMC5-R membranes. The note with it: 0.4 nM 125I-NDP-alpha-MSH, mean of triplicate. As for the experimental part: as §2

The next experiment concerns the target T6, angiotensin-II receptor (Homo sapiens, UniProt P30556).
T6 construct: cell membranes obtained from human neuroblastoma cells (KAN-TS); endogenous in cells; host or cells: KAN-TS human neuroblastoma cells (membranes)
T6 sequence (P30556 1-359): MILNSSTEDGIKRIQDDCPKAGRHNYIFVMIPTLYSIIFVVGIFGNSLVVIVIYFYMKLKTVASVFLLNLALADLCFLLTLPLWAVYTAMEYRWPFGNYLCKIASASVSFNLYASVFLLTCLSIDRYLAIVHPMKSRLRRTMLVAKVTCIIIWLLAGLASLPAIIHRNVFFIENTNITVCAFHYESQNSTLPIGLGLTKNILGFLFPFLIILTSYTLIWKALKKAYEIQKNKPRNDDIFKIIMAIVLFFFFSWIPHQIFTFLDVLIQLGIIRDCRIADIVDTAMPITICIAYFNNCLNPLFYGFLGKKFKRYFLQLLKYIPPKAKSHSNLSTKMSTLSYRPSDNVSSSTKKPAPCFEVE
The experiment can be described thus: angiotensin-II receptor binding, radioiodinated angiotensin II ligand, membranes of human neuroblastoma cells (KAN-TS). The note with it: for % Inhibition at 1 µM: KAN-TS cell membranes, 125I-Tyr4, Sar1, Ile8-Angiotensin II. The protocol:
The screening of compounds for binding to the angiotensin-II receptor was performed using cell membranes obtained from human neuroblastoma cells (KAN-TS). The assay was performed in triplicates, generally as described in Example 4 for oxytocin, except for measurement of receptor bound radioactivity. For angiotensin, a radioiodinated tracer ligand was used (instead of a tritiated ligand), which radioiodinated tracer facilitated direct measurement of bound radioactivity using a gamma counter. A final 1-3 nM concentration of ^125I-Tyr^4, Sar^1, Ile^8-Angiotensin II ligand (obtained from Perkin Elemer - NEN Life Sciences) was used as radiotracer and angiotensin-II (1 µM final assay concentration) was used to measure non-specific binding. After filtration of the incubation medium, followed by washings, drying the filters and punching the filters into test tubes, the filters were counted for radioactivity in a gamma counter. An activity profile for the test compounds was generated by ability to inhibit specific binding of the radiotracer to its receptor.

T1 sequence (Q03405 23-335): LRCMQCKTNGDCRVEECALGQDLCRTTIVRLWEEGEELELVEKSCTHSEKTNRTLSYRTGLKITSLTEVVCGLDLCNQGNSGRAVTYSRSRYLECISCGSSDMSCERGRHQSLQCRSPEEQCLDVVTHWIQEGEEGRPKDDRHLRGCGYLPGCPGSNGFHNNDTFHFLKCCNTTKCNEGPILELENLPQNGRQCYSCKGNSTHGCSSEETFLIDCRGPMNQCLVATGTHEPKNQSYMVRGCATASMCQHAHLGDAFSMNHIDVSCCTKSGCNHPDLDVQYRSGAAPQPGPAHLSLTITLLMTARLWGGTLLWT
T5 sequence (P33032 whole entry): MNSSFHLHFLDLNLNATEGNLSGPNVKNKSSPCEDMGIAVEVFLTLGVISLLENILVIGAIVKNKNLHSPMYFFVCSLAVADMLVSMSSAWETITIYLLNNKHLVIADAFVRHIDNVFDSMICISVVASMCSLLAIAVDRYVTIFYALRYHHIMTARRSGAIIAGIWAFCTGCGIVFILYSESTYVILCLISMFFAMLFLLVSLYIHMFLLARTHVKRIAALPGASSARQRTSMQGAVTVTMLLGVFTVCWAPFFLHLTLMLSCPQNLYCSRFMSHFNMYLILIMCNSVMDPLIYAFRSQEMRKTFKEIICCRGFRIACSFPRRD
T3 sequence (P41968 whole entry): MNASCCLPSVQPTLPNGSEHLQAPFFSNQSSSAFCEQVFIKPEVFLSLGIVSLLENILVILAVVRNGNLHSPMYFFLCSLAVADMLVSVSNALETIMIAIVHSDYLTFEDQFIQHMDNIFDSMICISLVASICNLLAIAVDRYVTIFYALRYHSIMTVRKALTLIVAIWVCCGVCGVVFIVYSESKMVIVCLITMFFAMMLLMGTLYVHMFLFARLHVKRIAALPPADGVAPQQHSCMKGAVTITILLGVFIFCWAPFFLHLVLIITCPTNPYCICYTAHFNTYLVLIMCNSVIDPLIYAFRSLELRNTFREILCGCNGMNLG
T2 sequence (Q01727 whole entry): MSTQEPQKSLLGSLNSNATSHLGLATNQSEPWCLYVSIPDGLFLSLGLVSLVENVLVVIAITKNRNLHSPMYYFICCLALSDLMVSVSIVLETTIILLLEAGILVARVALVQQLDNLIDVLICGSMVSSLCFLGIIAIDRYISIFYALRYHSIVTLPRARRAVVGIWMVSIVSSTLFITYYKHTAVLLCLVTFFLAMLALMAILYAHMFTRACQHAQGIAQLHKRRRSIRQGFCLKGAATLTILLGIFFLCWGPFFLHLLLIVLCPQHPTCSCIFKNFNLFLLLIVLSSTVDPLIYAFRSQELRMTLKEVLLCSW
T4 sequence (P32245 whole entry): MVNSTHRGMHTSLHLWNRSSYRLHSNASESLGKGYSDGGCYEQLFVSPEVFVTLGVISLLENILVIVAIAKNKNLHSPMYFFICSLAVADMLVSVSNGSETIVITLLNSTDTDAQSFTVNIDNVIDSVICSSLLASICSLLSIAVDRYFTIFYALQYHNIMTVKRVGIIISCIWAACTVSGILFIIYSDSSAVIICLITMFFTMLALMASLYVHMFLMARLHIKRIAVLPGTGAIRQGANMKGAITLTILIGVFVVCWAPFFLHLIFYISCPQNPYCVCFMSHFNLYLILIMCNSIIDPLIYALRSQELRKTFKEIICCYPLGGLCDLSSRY

By % Inhibition is commonly meant the relative decrease from the control value, in per cent. Regarding “Ac-Val-Ser-Asn-Lys-Tyr-Phe-Ser-Asn-Ile-Cys-His-Trp-NH2 (Ac-VSNKYFSNICHW-NH2; not fully specified (bridges); printed as Ac-Val-Ser-Asn-Lys-Tyr-Phe-Ser-Asn-Ile-Cys-His-Trp-NH2; also: oxorhenium(V) N3S1 metal chelate (X-X-Cys)) [SEQ ID NO:11]”, in the experiment with uPA receptor, the “% Inhibition at 1 µM” value was 0.0%.
“Ac-Val-Ser-Asn-Lys-Tyr-Phe-Ser-Asn-Ile-His-Cys-Trp-NH2 (Ac-VSNKYFSNIHCW-NH2; not fully specified (bridges); printed as Ac-Val-Ser-Asn-Lys-Tyr-Phe-Ser-Asn-Ile-His-Cys-Trp-NH2; also: oxorhenium(V) N3S1 metal chelate (X-X-Cys)) [SEQ ID NO:3]”: the “% Inhibition at 1 µM” value with uPA receptor amounted to 106.0%. Further, the “relative potency in uPA receptor binding” value with uPA receptor (compared with the other metallopeptides of Table 1) was “most potent”.
As to “Ac-Val-Ser-Asn-Lys-Tyr-Phe-Ser-Asn-lie-His-Trp-Cys-NH2 [SEQ ID NO:12]”, in the experiment with uPA receptor, the “% Inhibition at 1 µM” value stood at 0.0%.
For the substance “Ac-Val-Ser-Asn-Lys-Tyr-Phe-Ser-Cys-Asn-Ile-His-Trp-NH2 (Ac-VSNKYFSCNIHW-NH2; not fully specified (bridges); printed as Ac-Val-Ser-Asn-Lys-Tyr-Phe-Ser-Cys-Asn-Ile-His-Trp-NH2; also: oxorhenium(V) N3S1 metal chelate (X-X-Cys)) [SEQ ID NO:9]”, the “% Inhibition at 1 µM” value with uPA receptor was determined as 35.0%.
For the substance “Ac-Val-Ser-Cys-Asn-Lys-Tyr-Phe-Ser-Asn-Ile-His-Trp-NH2 (Ac-VSCNKYFSNIHW-NH2; not fully specified (bridges); printed as Ac-Val-Ser-Cys-Asn-Lys-Tyr-Phe-Ser-Asn-Ile-His-Trp-NH2; also: oxorhenium(V) N3S1 metal chelate (X-X-Cys)) [SEQ ID NO:4]”, the “% Inhibition at 1 µM” value with uPA receptor worked out at 0.0%.
For Ac-[Nle]ACH[dF]RW-NH2, at MC1-R, the “% Inhibition at 1 µM MC-1” value turned out to be 96%. Further, the “% Inhibition at 1 µM MC-3” value at hMC3-R was 47%. In addition, at hMC4-R, the “% Inhibition at 1 µM MC-4” value was 71%. Also, the “% Inhibition at 1 µM MC-5” value on hMC5-R is listed as 64%.
On the same counts, the results for Ac-[Nle]AHC[dF]RW-NH2 are 84%, 9%, 75% and 58%.
For the substance Ac-[Nle]AH[dF]CRW-NH2, the “% Inhibition at 1 µM MC-1” value at MC1-R was 93%. In addition, the “% Inhibition at 1 µM MC-3” value on hMC3-R was 15%. Also, the “% Inhibition at 1 µM MC-4” value on hMC4-R turned out to be 66%. At hMC5-R, the “% Inhibition at 1 µM MC-5” value is recorded as 57%.
On to Ac-[Nle]AH[dF]RCW-NH2, for which, on MC1-R, the “% Inhibition at 1 µM MC-1” value is reported as 96% and the “receptor specificity MCR-1 versus MCR-4” value was “specific for the MCR-1 receptor but not the MCR-4 receptor”. The “% Inhibition at 1 µM MC-3” value at hMC3-R is 0%. Moreover, the “% Inhibition at 1 µM MC-4” value at hMC4-R was 17%. Besides, the “% Inhibition at 1 µM MC-5” value at hMC5-R is given as 0%.
Consider Ac-[Nle]AH[dF]RWC-NH2, for which, at MC1-R, the “% Inhibition at 1 µM MC-1” value was found to be 91%; the “receptor specificity MCR-1 versus MCR-4” value was “binding both the MCR-1 and MCR-4 receptors”. At hMC3-R, the “% Inhibition at 1 µM MC-3” value is 70%. In addition, the “% Inhibition at 1 µM MC-4” value at hMC4-R turned out to be 98%. In addition, the “% Inhibition at 1 µM MC-5” value at hMC5-R is listed as 93%.
Take “Sar-Arg-Cys-Val-Tyr-Ile-His-Pro-Thr ([Sar]RCVYIHPT; not fully specified (bridges); printed as Sar-Arg-Cys-Val-Tyr-Ile-His-Pro-Thr; also: oxorhenium(V) metal complex) [SEQ ID NO:165]”: the “% Inhibition at 1 µM” value in the experiment with angiotensin-II receptor turned out to be 1%.
Consider “Sar-Arg-Val-Cys-Tyr-Ile-His-Pro-Thr ([Sar]RVCYIHPT; not fully specified (bridges); printed as Sar-Arg-Val-Cys-Tyr-Ile-His-Pro-Thr; also: oxorhenium(V) metal complex) [SEQ ID NO:164]”, for which the “% Inhibition at 1 µM” value with angiotensin-II receptor was 1%.
Still for that read-out and setting: the result for “Sar-Arg-Val-Tyr-Cys-Ile-His-Pro-Thr ([Sar]RVYCIHPT; not fully specified (bridges); printed as Sar-Arg-Val-Tyr-Cys-Ile-His-Pro-Thr; also: oxorhenium(V) metal complex) [SEQ ID NO:163]” reads 12%; that for “Sar-Arg-Val-Tyr-Ile-Cys-His-Pro-Thr ([Sar]RVYICHPT; not fully specified (bridges); printed as Sar-Arg-Val-Tyr-Ile-Cys-His-Pro-Thr; also: oxorhenium(V) metal complex) [SEQ ID NO:162]”, 20%.
For “Sar-Arg-Val-Tyr-Ile-His-Cys-Gly-Thr ([Sar]RVYIHCGT; not fully specified (bridges); printed as Sar-Arg-Val-Tyr-Ile-His-Cys-Gly-Thr; also: oxorhenium(V) metal complex) [SEQ ID NO:166]”, the “% Inhibition at 1 µM” value with angiotensin-II receptor was determined as 11%. Also, the “percent inhibition compared with SEQ ID NO:161” value with angiotensin-II receptor (Gly substituted for Pro) was “significantly less”.
Consider “Sar-Arg-Val-Tyr-Ile-His-Cys-Pro-Thr ([Sar]RVYIHCPT; not fully specified (bridges); printed as Sar-Arg-Val-Tyr-Ile-His-Cys-Pro-Thr; also: oxorhenium(V) metal complex) [SEQ ID NO:161]”, for which the “% Inhibition at 1 µM” value with angiotensin-II receptor was determined as 60%.
Same read-out and setting: the result for “Sar-Arg-Val-Tyr-Ile-His-Gly-Cys-Thr ([Sar]RVYIHGCT; not fully specified (bridges); printed as Sar-Arg-Val-Tyr-Ile-His-Gly-Cys-Thr; also: oxorhenium(V) metal complex) [SEQ ID NO:160]” reads 5%.
